Measurements taken from article PMC3705364, “Biochemical and Electrophysiological Characterization of Two Sea Anemone Type 1 Potassium Toxins from a Geographically Distant Population of Bunodosoma caissarum” (Marine Drugs, 2013).
Where a SMILES comes first, the peptide text is derived from it. Bridges are numbered along the chain shown (N, C = ends).

Legend:
[1] = molecular target: T1, rKV1.1 (Rattus norvegicus, UniProt P10499); assay: Two-electrode voltage-clamp, X. laevis oocytes expressing rKV1.1; format: cell-based; conditions: mean ± standard error
T1 construct: expressed in transfected cells; host or cells: Xenopus laevis oocytes injected with cRNA
T1 sequence (P10499 whole entry): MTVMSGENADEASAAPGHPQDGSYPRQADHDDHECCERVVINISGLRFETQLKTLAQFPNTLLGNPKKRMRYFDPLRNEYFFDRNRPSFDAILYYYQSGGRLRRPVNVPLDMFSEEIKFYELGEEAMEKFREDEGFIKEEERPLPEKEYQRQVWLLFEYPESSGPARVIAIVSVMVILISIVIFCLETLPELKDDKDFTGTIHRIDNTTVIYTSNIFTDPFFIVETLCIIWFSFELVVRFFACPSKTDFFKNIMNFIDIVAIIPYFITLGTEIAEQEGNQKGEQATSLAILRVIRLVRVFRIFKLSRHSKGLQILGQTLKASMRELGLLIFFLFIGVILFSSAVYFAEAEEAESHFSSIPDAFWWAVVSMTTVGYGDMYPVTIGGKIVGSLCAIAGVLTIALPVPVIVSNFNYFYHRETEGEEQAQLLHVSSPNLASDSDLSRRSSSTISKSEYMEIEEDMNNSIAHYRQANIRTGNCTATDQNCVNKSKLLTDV
Procedure: (§1) Stage V–VI of X. laevis oocytes were harvested by partial ovariectomy under anesthesia (3-aminobenzoic acid ethyl ester methanesulfonate salt, 0.5 g/L from Sigma-Aldrich Co., Saint Louis, MO, USA). The oocytes were defolliculated for 2 h by treatment with 2 mg/mL collagenase (Sigma-Aldrich Co., Saint Louis, MO, USA) in Ca^2+ free ND96 solution (in mM: 96 NaCl; 2 KCl; 1 MgCl2; 5 HEPES adjusted pH 7.4). For the expression of KV channels (KV1.1–KV1.6, KV2.1, KV3.1, KV4.2, KV4.3, hERG and the insect channel Shaker IR), the linearized plasmids were transcribed using the T7 or SP6 mMessage-mMachine transcription kit (Ambion, Austin, TX, USA). Oocytes were injected with 50 nL of cRNA at a concentration of 1 ng/nL using a microinjector (Drummond Scientific, Broomall, PA, USA). The oocytes were maintained in a ND96 solution (in mM: 96 NaCl, 2 KCl, 1.8 CaCl2, 2 MgCl2 and 5 HEPES; adjusted pH 7.4), supplemented with 50 µg/mL gentamicin sulfate.
(§2) Two-electrode voltage-clamp recordings were performed at room temperature (18–22 °C) using a Geneclamp 500 amplifier (Molecular Devices, Sunnyvale, CA, USA) controlled by a pClamp data acquisition system (Axon Instruments, Union City, CA, USA). Whole-cell currents from oocytes were recorded from 1 to 3 days after injection. Bath solution was the same ND96 solution described above. Voltage and current electrodes were filled with 3 M KCl. Resistances of both electrodes were kept between 0.8 and 1.0 ΩM. The elicited currents were filtered at 500 Hz using a four-pole lowpass Bessel filter. Leak subtraction was performed using a −P/4 protocol. KV1.1–KV1.6 and Shaker IR currents were evoked by 500 ms depolarizations to 0 mV, followed by a 500 ms pulse to −50 mV, from a holding potential of −90 mV. Current traces of hERG channels were elicited by applying a +40 mV prepulse for 2 s, followed by a step to −120 mV for 2 s. KV3.1, KV 4.2 and KV4.3 currents were elicited by 500 ms pulses to +20 mV from a holding potential of −90 mV. To assess the concentration-response relationships, data were fitted with the Hill equation: y = 100/[1 + (EC50/[toxin])h] (1) where y is the amplitude of the toxin-induced effect, EC50 is the toxin concentration at half maximal efficacy, [toxin] is the toxin concentration and h is the Hill coefficient. In order to investigate the current-voltage relationship, current traces were evoked by 10 mV depolarization steps from a holding potential of −90 mV. […]
(§3) Comparison of two sample means was made using a paired Student’s t test (p < 0.05). […] All data were analyzed using Clampfit 10.3 (Molecular Devices, Sunnyvale, CA, USA) and Origin 7.5 software (Origin Lab., Northampton, MA, USA).

[2] = molecular target: T2, Shaker IR (Drosophila melanogaster, UniProt P08510, DEL6-46); assay: Two-electrode voltage-clamp, X. laevis oocytes expressing Shaker IR; format: cell-based, insect; conditions: mean ± standard error
T2 construct: expressed in transfected cells; host or cells: Xenopus laevis oocytes injected with cRNA
T2 sequence (P08510 with tags, fused parts or gaps DEL6-46): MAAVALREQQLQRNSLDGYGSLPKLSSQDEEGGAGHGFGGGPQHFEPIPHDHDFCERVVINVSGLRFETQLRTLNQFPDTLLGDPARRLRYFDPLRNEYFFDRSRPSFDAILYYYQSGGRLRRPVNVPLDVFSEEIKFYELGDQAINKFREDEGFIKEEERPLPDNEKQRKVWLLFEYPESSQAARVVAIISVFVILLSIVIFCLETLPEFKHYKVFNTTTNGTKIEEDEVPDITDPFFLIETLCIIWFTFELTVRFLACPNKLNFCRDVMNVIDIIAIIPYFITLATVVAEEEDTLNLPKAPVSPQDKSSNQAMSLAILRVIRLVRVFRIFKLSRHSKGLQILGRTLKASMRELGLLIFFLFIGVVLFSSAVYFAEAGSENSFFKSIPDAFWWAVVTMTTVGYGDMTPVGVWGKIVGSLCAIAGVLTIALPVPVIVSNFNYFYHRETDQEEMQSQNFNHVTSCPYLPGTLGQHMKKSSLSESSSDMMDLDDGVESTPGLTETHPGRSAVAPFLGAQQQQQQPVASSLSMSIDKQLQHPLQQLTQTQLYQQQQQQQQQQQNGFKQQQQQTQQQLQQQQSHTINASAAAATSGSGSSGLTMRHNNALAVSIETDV
Procedure: as §1, §2, §3

[3] = tested on: KV1.1–KV1.6, KV2.1, KV3.1, KV4.2, KV4.3, hERG and Shaker IR; assay: Electrophysiological screening on 12 cloned KV channel isoforms in X. laevis oocytes; format: cell-based, rat, human, insect
Procedure: The pharmacological profile of BcsTx-1 and -2 were determined on a wide range of twelve KV channels (rKV1.1, rKV1.2, hKV1.3, rKV1.4, rKV1.5, rKV1.6, rKV2.1, rKV3.1, rKV4.2, rKV4.3, hERG and the insect channel Shaker IR; r: rat and h: human). Channels were expressed in X. laevis oocytes, and their currents were recorded by using two-electrode voltage-clamp technique. BcsTx1 (0.5 µM) inhibited rKv1.1, rKv1.2, rKv1.3, rKv1.6 and Shaker IR channels with 44% ± 2%, 100%, 100%, 88% ± 3% and 64% ± 4%, respectively (Figure 6). […] Type 1 toxins, such as BgK and ShK, have been extensively characterized. […] Some of the other type 1 toxins were indirectly assayed by competitive inhibition of the binding of ^125I-dendrotoxins, allowing the conclusion that they will show activity on KV1.1, KV1.2 and/or KV1.6, since dendrotoxins only block the current of these KV channels. […] Thus, it is worth mentioning that our work represents the first electrophysiological characterization of type 1 sea anemone toxin activity on cloned Shaker IR insect channel.
as §1
Two-electrode voltage-clamp recordings were performed at room temperature (18–22 °C) using a Geneclamp 500 amplifier (Molecular Devices, Sunnyvale, CA, USA) controlled by a pClamp data acquisition system (Axon Instruments, Union City, CA, USA). Whole-cell currents from oocytes were recorded from 1 to 3 days after injection. Bath solution was the same ND96 solution described above. Voltage and current electrodes were filled with 3 M KCl. Resistances of both electrodes were kept between 0.8 and 1.0 ΩM. The elicited currents were filtered at 500 Hz using a four-pole lowpass Bessel filter. Leak subtraction was performed using a −P/4 protocol. KV1.1–KV1.6 and Shaker IR currents were evoked by 500 ms depolarizations to 0 mV, followed by a 500 ms pulse to −50 mV, from a holding potential of −90 mV. Current traces of hERG channels were elicited by applying a +40 mV prepulse for 2 s, followed by a step to −120 mV for 2 s. KV3.1, KV 4.2 and KV4.3 currents were elicited by 500 ms pulses to +20 mV from a holding potential of −90 mV. To assess the concentration-response relationships, data were fitted with the Hill equation: y = 100/[1 + (EC50/[toxin])h] (1) where y is the amplitude of the toxin-induced effect, EC50 is the toxin concentration at half maximal efficacy, [toxin] is the toxin concentration and h is the Hill coefficient. In order to investigate the current-voltage relationship, current traces were evoked by 10 mV depolarization steps from a holding potential of −90 mV. The activation curves were fitted with a Boltzmann relationship of the form: 1/(1 + e^[−(V − V^1/2)/^S^]) (2) where V1/2 is the voltage for half-maximal activation and s is the slope factor. The activation kinetics were obtained by mono-exponential fits to the raw current traces.

[4] = TEVC, 18–22 °C, ND96 pH 7.4, 500 ms depolarizations to 0 mV from −90 mV, Hill fit, n ≥ 3

Work on `CC(C)C[C@@H]1NC(=O)[C@H](CCCCN)NC(=O)[C@H](C)NC(=O)[C@H](Cc2c[nH]cn2)NC(=O)[C@H](CCC(N)=O)NC(=O)[C@@H]2CSSC[C@@H]3NC(=O)[C@H](CC(N)=O)NC(=O)[C@H](C)NC(=O)[C@H](CCCNC(=N)N)NC(=O)[C@H](Cc4ccc(O)cc4)NC(=O)[C@H](CCCCN)NC(=O)[C@H](CCC(N)=O)NC(=O)[C@H](CO)NC(=O)[C@H](CC(N)=O)NC(=O)[C@H](CCCCN)NC(=O)[C@H](CSSC[C@H](NC(=O)[C@H]([C@@H](C)O)NC(=O)[C@H](CCCCN)NC(=O)[C@H](C)NC3=O)C(=O)NCC(=O)N3CCC[C@H]3C(=O)N[C@H](C(=O)O)CSSC[C@H](NC(=O)[C@H](C)N)C(=O)N[C@@H](CCCCN)C(=O)N[C@@H](CC(=O)O)C(=O)NCC(=O)N[C@@H](Cc3ccccc3)C(=O)N3CCC[C@H]3C(=O)N[C@@H]([C@@H](C)O)C(=O)N[C@@H](C)C(=O)N[C@@H]([C@@H](C)O)C(=O)N2)NC(=O)[C@H](CC(N)=O)NC(=O)CNC(=O)[C@H](C(C)C)NC1=O` [BcsTx2] (H-ACKDGFPTATCQHAKLVGNCKNSQKYRANCAKTCGPC-OH; disulfide 2-37, 11-30, 20-34; C-terminus assumed) yielded an inhibition at 3 µM ([1]; 3 µM, n ≥ 3, read-out: inhibition of rKV1.1 current) of 96%, an IC50 [1, 4] of 14.4 ± 2.61 nM and an inhibition at 3 µM ([2]; 3 µM, n ≥ 3, read-out: inhibition of Shaker IR current) of 94%. The IC50 [2, 4] was 49.1 ± 3.44 nM, the “selectivity among KV channels (in words)” value ([3]; 3 µM, 12 KV isoforms) was “selectively blocks Shaker channels subfamily” and the “potency class on KV channels (in words)” value ([3]; summary of IC50 values, compared with BgK and type 2 toxins) was “within the nanomolar range”. The “affinity/potency order among KV channels (in words)” value ([3]; summary of the electrophysiological characterization) was “potently blocked rKv1.6 over hKv1.3, rKv1.1, Shaker IR and rKv1.2”.
